Data from ChEMBL document CHEMBL3272146, “Tetramethoxydibenzoquinolizinium salts. Preparation and antileukemic activity of some positional and structural isomers of coralyne” (1976).
Calls of active or inactive are those of the source. The calls are words filed in the database; no cut-off is given here.

Experiments:
P388 [1] = assay: In-vivo antileukemic activity against mouse P388 cells assessed as host survival at 5 mg/kg qd relative to control; assay type: functional
P388 [2] = assay: In-vivo antileukemic activity against mouse P388 cells assessed as host survival at 40 mg/kg qd relative to control; assay type: functional
P388 [3] = assay: In-vivo antileukemic activity against mouse P388 cells assessed as host survival at 80 mg/kg qd relative to control; assay type: functional
P388 [4] = assay: In-vivo antileukemic activity against mouse P388 cells assessed as host survival at 50 mg/kg qd; assay type: functional, organism-based; parameters: dose 50 mg/kg
P388 [5] = assay: In-vivo antileukemic activity against mouse P388 cells assessed as host survival at 5 mg/kg qd; assay type: functional, organism-based; parameters: dose 5 mg/kg
P388 [6] = assay: In-vivo antileukemic activity against mouse P388 cells assessed as host survival at 8 mg/kg qd relative to control; assay type: functional
P388 [7] = assay: In-vivo antileukemic activity against mouse P388 cells assessed as host survival at 10 mg/kg qd relative to control; assay type: functional
P388 [8] = assay: In-vivo antileukemic activity against mouse P388 cells assessed as host survival at 75 mg/kg qd relative to control; assay type: functional
P388 [9] = assay: In-vivo antileukemic activity against mouse P388 cells assessed as host survival at 128 mg/kg qd relative to control; assay type: functional
P388 [10] = assay: In-vivo antileukemic activity against mouse P388 cells assessed as host survival at 64 mg/kg qd; assay type: functional, organism-based; parameters: dose 64 mg/kg
P388 [11] = assay: In-vivo antileukemic activity against mouse P388 cells assessed as host survival at 160 mg/kg qd relative to control; assay type: functional
P388 [12] = assay: In-vivo antileukemic activity against mouse P388 cells assessed as host survival at 100 mg/kg qd; assay type: functional, organism-based; parameters: dose 100 mg/kg
P388 [13] = assay: In-vivo antileukemic activity against mouse P388 cells assessed as host survival at 32 mg/kg qd relative to control; assay type: functional
P388 [14] = assay: In-vivo antileukemic activity against mouse P388 cells assessed as host survival at 100 mg/kg qd relative to control; assay type: functional
P388 [15] = assay: In-vivo antileukemic activity against mouse P388 cells assessed as host survival at 50 mg/kg qd relative to control; assay type: functional
P388 [16] = assay: In-vivo antileukemic activity against mouse P388 cells assessed as host survival at 20 mg/kg qd relative to control; assay type: functional
P388 [17] = assay: In-vivo antileukemic activity against mouse P388 cells assessed as host survival at 64 mg/kg qd relative to control; assay type: functional
P388 [18] = assay: In-vivo antileukemic activity against mouse P388 cells assessed as host survival at 25 mg/kg qd relative to control; assay type: functional
P388 [19] = assay: In-vivo antileukemic activity against mouse P388 cells assessed as host survival at 400 mg/kg qd relative to control; assay type: functional
P388 [20] = assay: In-vivo antileukemic activity against mouse P388 cells assessed as host survival at 200 mg/kg qd relative to control; assay type: functional
P388 [21] = assay: In-vivo antileukemic activity against mouse P388 cells assessed as host survival at 25 mg/kg qd; assay type: functional, organism-based; parameters: dose 25 mg/kg
P388 [22] = assay: In-vivo antileukemic activity against mouse P388 cells assessed as host survival at 200 mg/kg qd; assay type: functional, organism-based; parameters: dose 200 mg/kg
P388 [23] = assay: In-vivo antileukemic activity against mouse P388 cells assessed as host survival at 168 mg/kg qd; assay type: functional, organism-based; parameters: dose 168 mg/kg
P388 [24] = assay: In-vivo antileukemic activity against mouse P388 cells assessed as host survival at 10 mg/kg qd; assay type: functional, organism-based; parameters: dose 10 mg/kg
P388 [25] = assay: In-vivo antileukemic activity against mouse P388 cells assessed as host survival at 20 mg/kg qd; assay type: functional, organism-based; parameters: dose 20 mg/kg
P388 [26] = assay: In-vivo antileukemic activity against mouse P388 cells assessed as host survival at 120 mg/kg qd; assay type: functional, organism-based; parameters: dose 120 mg/kg
P388 [27] = assay: In-vivo antileukemic activity against mouse P388 cells assessed as host survival at 120 mg/kg qd relative to control; assay type: functional
P388 [28] = assay: In-vivo antileukemic activity against mouse P388 cells assessed as host survival at 80 mg/kg qd; assay type: functional, organism-based; parameters: dose 80 mg/kg
P388 [29] = assay: In-vivo antileukemic activity against mouse P388 cells assessed as host survival at 160 mg/kg qd; assay type: functional, organism-based; parameters: dose 160 mg/kg
P388 [30] = assay: In-vivo antileukemic activity against mouse P388 cells assessed as host survival at 40 mg/kg qd; assay type: functional, organism-based; parameters: dose 40 mg/kg

| SMILES | T/C (P388 [1]) | T/C (P388 [2]) | T/C (P388 [3]) | Activity (P388 [4]) | Activity (P388 [5]) | T/C (P388 [7]) | T/C (P388 [11]) | Activity (P388 [12]) | T/C (P388 [14]) | T/C (P388 [15]) | T/C (P388 [16]) | T/C (P388 [18]) | Activity (P388 [21]) | Activity (P388 [24]) | Activity (P388 [25]) | Activity (P388 [26]) | T/C (P388 [27]) | Activity (P388 [28]) | other results |
| --- | --- | --- | --- | --- | --- | --- | --- | --- | --- | --- | --- | --- | --- | --- | --- | --- | --- | --- | --- |
| CC(=O)OS(=O)(=O)[O-].COc1cc2cc3c4cc(OC)c(OC)cc4cc[n+]3c(C)c2cc1OC | 157 | 173 | 175 | Active | Active | 159 | 170 | Active | 176 | 180 | 173 |  |  |  |  |  |  |  | T/C (P388 [6]): 150; T/C (P388 [8]): 175; T/C (P388 [9]): 167; Activity (P388 [10]): Active; T/C (P388 [13]): 175; T/C (P388 [17]): 182 |
| COc1cc2cc3c4cc(OC)c(OC)cc4cc(C)[n+]3cc2cc1OC.[Cl-] |  |  |  | Active |  |  |  | Active | 134 | 134 |  | 139 | Active |  |  |  |  |  | T/C (P388 [19]): 131; T/C (P388 [20]): 139; Activity (P388 [22]): Active |
| CC(=O)OS(=O)(=O)[O-].COc1cc2cc[n+]3c(C)c4ccc(OC)c(OC)c4cc3c2cc1OC | 127 | 177 |  |  | Active | 136 |  |  |  |  | 171 |  |  | Active | Active |  |  |  | Activity (P388 [23]): inactive |
| CC(=O)OS(=O)(=O)[O-].COc1cc2c[n+](C)c3c4ccc(OC)c(OC)c4ccc3c2cc1OC |  | 153 | 170 | Active |  | 149 |  | Active | 209 | 174 | 154 | 164 | Active | Active | Active | Active | 179 | Active |  |
| CC(=O)OS(=O)(=O)[O-].COc1cc2cc3cc4cc(OC)c(OC)cc4c(C)[n+]3cc2cc1OC | 140 | 150 | 180 |  | Active | 145 | 200 |  |  |  | 180 |  |  | Active | Active | Active | 150 | Active | Activity (P388 [29]): Active; Activity (P388 [30]): Active |
